Measurements: patent US8435980B2 (AbbVie Inc., priority 2009, dated 2013)

Target: T1, Cdc7 (BEV coexpressed huCDC7/DBF4) (Homo sapiens, UniProt O00311)
T1 construct: made in house; host or cells: BEV (baculovirus expression vector) co-expression; insect cells are implied but no cell line is named
Test: Cdc7 enzyme inhibition assay ([33P]ATP, biotinylated peptide substrate, FlashPlate)
Type: biochemical
Conditions: Table 3; enzyme inhibition data (Ki)
Procedure: Cdc7 (BEV coexpressed huCDC7/DBF4) is prepared internally. Cdc7 assays are conducted as follows with final concentrations as listed. […] Reactions are quenched after 1 hr by the addition of 90 μL stop buffer (50 mM EDTA, 2M NaCl). […] (Ki) for exemplary compounds.

T1 sequence (O00311 whole entry): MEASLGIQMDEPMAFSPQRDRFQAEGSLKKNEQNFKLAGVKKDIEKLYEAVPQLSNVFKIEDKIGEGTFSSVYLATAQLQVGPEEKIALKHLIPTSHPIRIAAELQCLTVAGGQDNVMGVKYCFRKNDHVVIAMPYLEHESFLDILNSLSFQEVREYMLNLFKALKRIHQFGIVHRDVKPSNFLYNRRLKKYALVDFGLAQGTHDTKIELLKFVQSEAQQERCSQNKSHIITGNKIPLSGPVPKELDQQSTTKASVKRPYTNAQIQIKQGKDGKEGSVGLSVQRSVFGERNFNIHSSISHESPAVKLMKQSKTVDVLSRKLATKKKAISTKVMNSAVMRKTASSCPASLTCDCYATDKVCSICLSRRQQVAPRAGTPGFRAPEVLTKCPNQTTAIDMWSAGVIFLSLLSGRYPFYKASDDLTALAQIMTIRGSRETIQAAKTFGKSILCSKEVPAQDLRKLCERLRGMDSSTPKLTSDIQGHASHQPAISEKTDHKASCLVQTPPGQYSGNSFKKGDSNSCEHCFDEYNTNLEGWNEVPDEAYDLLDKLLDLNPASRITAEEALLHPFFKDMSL
T1 sequence (Q9UBU7 whole entry partner): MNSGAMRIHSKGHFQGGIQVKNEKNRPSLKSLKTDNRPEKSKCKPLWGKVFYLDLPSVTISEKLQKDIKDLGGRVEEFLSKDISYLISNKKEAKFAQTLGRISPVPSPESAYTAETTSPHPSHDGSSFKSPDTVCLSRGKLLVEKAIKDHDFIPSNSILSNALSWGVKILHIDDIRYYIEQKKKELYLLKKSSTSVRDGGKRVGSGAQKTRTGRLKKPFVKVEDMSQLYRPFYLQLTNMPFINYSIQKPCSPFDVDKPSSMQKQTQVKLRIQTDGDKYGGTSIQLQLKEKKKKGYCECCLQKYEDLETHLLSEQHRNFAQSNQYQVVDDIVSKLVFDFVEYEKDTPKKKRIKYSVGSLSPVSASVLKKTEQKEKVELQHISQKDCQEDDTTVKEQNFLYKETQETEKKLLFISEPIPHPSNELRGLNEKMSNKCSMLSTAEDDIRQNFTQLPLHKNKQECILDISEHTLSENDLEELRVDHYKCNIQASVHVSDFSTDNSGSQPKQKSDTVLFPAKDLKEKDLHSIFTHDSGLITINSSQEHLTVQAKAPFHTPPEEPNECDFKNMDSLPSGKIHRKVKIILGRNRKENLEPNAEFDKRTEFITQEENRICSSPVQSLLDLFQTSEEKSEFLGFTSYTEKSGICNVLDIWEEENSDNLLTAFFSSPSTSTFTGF

Structure (SMILES)	Ki
Cc1cccc(CN2CC(C(=O)N[C@H]3CC[C@H](Nc4cc(-c5c[nH]c6ncccc56)cc(Cl)n4)CC3)C2)c1C [Example 406, N-(trans-4-{[6-chloro-4-(1H-pyrrolo[2,3-b]pyridin-3-yl)pyridin-2-yl]amino}cyclohexyl)-1-(2,3-dimethylbenzyl)azetidine-3-carboxamide]	< 10 nM
O=C(N[C@H]1CC[C@H](Nc2cc(-c3c[nH]c4ncccc34)cc(Cl)n2)CC1)C1CN(Cc2ccc3cc[nH]c3c2)C1 [Example 407, N-(trans-4-{[6-chloro-4-(1H-pyrrolo[2,3-b]pyridin-3-yl)pyridin-2-yl]amino}cyclohexyl)-1-(1H-indol-6-ylmethyl)azetidine-3-carboxamide]	< 10 nM
Clc1cc(-c2c[nH]c3ncccc23)cc(NCc2ccc3[nH]ccc3c2)n1 [Example 410, 6-chloro-N-(1H-indol-5-ylmethyl)-4-(1H-pyrrolo[2,3-b]pyridin-3-yl)pyridin-2-amine]	< 10 nM
COc1cc(Nc2cc(-c3c[nH]c4ncccc34)cc(Cl)n2)cc(OC)c1OC [Example 412, 6-chloro-4-(1H-pyrrolo[2,3-b]pyridin-3-yl)-N-(3,4,5-trimethoxyphenyl)pyridin-2-amine]	< 10 nM
COc1ccc(CNc2cc(-c3c[nH]c4ncccc34)cc(Cl)n2)cc1OC [Example 414]	< 10 nM
CS(=O)(=O)c1ccc(CNc2cc(-c3c[nH]c4ncccc34)cc(Cl)n2)cc1 [Example 417, 6-chloro-N-[4-(methylsulfonyl)benzyl]-4-(1H-pyrrolo[2,3-b]pyridin-3-yl)pyridin-2-amine]	< 10 nM
COC(=O)c1cnc2[nH]cc(-c3cc(Cl)nc(NC4CCCCC4)c3)c2c1 [Example 421, methyl 3-[2-chloro-6-(cyclohexylamino)pyridin-4-yl]-1H-pyrrolo[2,3-b]pyridine-5-carboxylate]	< 10 nM
O=C(CN1CCN(CCO)CC1)N[C@H]1CC[C@H](Nc2cc(-c3c[nH]c4ncccc34)cc(Cl)n2)CC1 [Example 422, N-(trans-4-{[6-chloro-4-(1H-pyrrolo[2,3-b]pyridin-3-yl)pyridin-2-yl]amino}cyclohexyl)-2-[4-(2-hydroxyethyl)piperazin-1-yl]acetamide]	< 10 nM
Cc1cccc(C)c1N1CCN(CC(=O)N[C@H]2CC[C@H](Nc3cc(-c4c[nH]c5ncccc45)cc(Cl)n3)CC2)CC1 [Example 423, N-(trans-4-{[6-chloro-4-(1H-pyrrolo[2,3-b]pyridin-3-yl)pyridin-2-yl]amino}cyclohexyl)-2-[4-(2,6-dimethylphenyl)piperazin-1-yl]acetamide]	< 10 nM
COc1cnc2[nH]cc(-c3cc(Cl)nc(NC4CCC(CC5CCC(NC6CCC6)CC5)CC4)c3)c2c1 (centres unmarked) [Example 424, 6-chloro-N-(4-{[4-(cyclobutylamino)cyclohexyl]methyl}cyclohexyl)-4-(5-methoxy-1H-pyrrolo[2,3-b]pyridin-3-yl)pyridin-2-amine]	< 10 nM
CCC(CC)NC1CCC(CC2CCC(Nc3cc(-c4c[nH]c5ncc(OC)cc45)cc(Cl)n3)CC2)CC1 (centres unmarked) [Example 425, 6-chloro-4-(5-methoxy-1H-pyrrolo[2,3-b]pyridin-3-yl)-N-(4-{[4-(pentan-3-ylamino)cyclohexyl]methyl}cyclohexyl)pyridin-2-amine]	< 10 nM
COc1cnc2[nH]cc(-c3cc(Cl)nc(NC4CCC(CC5CCC(NCC6CCCC6)CC5)CC4)c3)c2c1 (centres unmarked) [Example 426, 6-chloro-N-[4-({4-[(cyclopentylmethyl)amino]cyclohexyl}methyl)cyclohexyl]-4-(5-methoxy-1H-pyrrolo[2,3-b]pyridin-3-yl)pyridin-2-amine]	< 10 nM
N[C@H]1CC[C@H](Nc2cc(-c3c[nH]c4ncc(OCCc5ccccn5)cc34)cc(Cl)n2)CC1 [Example 427, trans-N-(6-chloro-4-{5-[2-(pyridin-2-yl)ethoxy]-1H-pyrrolo[2,3-b]pyridin-3-yl}pyridin-2-yl)cyclohexane-1,4-diamine]	< 10 nM
CC(C)COc1cnc2[nH]cc(-c3cc(Cl)nc(N[C@H]4CC[C@H](N)CC4)c3)c2c1 [Example 428, trans-N-{6-chloro-4-[5-(2-methylpropoxy)-1H-pyrrolo[2,3-b]pyridin-3-yl]pyridin-2-yl}cyclohexane-1,4-diamine]	< 10 nM
O=C(N[C@H]1CC[C@H](Nc2cc(-c3c[nH]c4ncccc34)cc(Cl)n2)CC1)C1CN(Cc2ccccn2)C1 [Example 429, N-(trans-4-{[6-chloro-4-(1H-pyrrolo[2,3-b]pyridin-3-yl)pyridin-2-yl]amino}cyclohexyl)-1-(pyridin-2-ylmethyl)azetidine-3-carboxamide]	< 10 nM
COc1cnc2[nH]cc(-c3cc(Cl)nc(N[C@H]4CC[C@H](NC(=O)C(F)(F)F)CC4)c3)c2c1 [Example 430, N-(trans-4-{[6-chloro-4-(5-methoxy-1H-pyrrolo[2,3-b]pyridin-3-yl)pyridin-2-yl]amino}cyclohexyl)-2,2,2-trifluoroacetamide]	< 10 nM
COc1ccc(-c2cnc3[nH]cc(-c4cc(Cl)nc(NC5CCCCC5)c4)c3c2)cn1 [Example 431, 6-chloro-N-cyclohexyl-4-[5-(6-methoxypyridin-3-yl)-1H-pyrrolo[2,3-b]pyridin-3-yl]pyridin-2-amine]	< 10 nM
CCN(CCO)CC(=O)N[C@H]1CC[C@H](Nc2cc(-c3c[nH]c4ncc(OC)cc34)cc(Cl)n2)CC1 [Example 432, N-(trans-4-{[6-chloro-4-(5-methoxy-1H-pyrrolo[2,3-b]pyridin-3-yl)pyridin-2-yl]amino}cyclohexyl)-N~2~-ethyl-N~2~-(2-hydroxyethyl)glycinamide]	< 10 nM
COc1cnc2[nH]cc(-c3cc(Cl)nc(N[C@H]4CC[C@H](NC(=O)CNCCO)CC4)c3)c2c1 [Example 433, N-(trans-4-{[6-chloro-4-(5-methoxy-1H-pyrrolo[2,3-b]pyridin-3-yl)pyridin-2-yl]amino}cyclohexyl)-N~2~-(2-hydroxyethyl)glycinamide]	< 10 nM

Continued, values first:

Ki	Structure (SMILES)
< 10 nM	Clc1cc(-c2c[nH]c3ncccc23)cc(Nc2ccc(OCc3ccccc3)cc2)n1 [Example 408, N-[4-(benzyloxy)phenyl]-6-chloro-4-(1H-pyrrolo[2,3-b]pyridin-3-yl)pyridin-2-amine]
< 10 nM	Clc1cc(-c2c[nH]c3ncccc23)cc(NCc2nc3ccccc3[nH]2)n1 [Example 409, N-(1H-benzimidazol-2-ylmethyl)-6-chloro-4-(1H-pyrrolo[2,3-b]pyridin-3-yl)pyridin-2-amine]
< 10 nM	COc1ccc(Nc2cc(-c3c[nH]c4ncccc34)cc(Cl)n2)cc1 [Example 411, 6-chloro-N-(4-methoxyphenyl)-4-(1H-pyrrolo[2,3-b]pyridin-3-yl)pyridin-2-amine]
< 10 nM	Clc1cc(-c2c[nH]c3ncccc23)cc(Nc2ccc(-n3ccnc3)cc2)n1 [Example 413, 6-chloro-N-[4-(1H-imidazol-1-yl)phenyl]-4-(1H-pyrrolo[2,3-b]pyridin-3-yl)pyridin-2-amine]
< 10 nM	OC(CNc1cc(-c2c[nH]c3ncccc23)cc(Cl)n1)c1ccccc1 (centres unmarked) [Example 415, 2-{[6-chloro-4-(1H-pyrrolo[2,3-b]pyridin-3-yl)pyridin-2-yl]amino}-1-phenylethanol]
< 10 nM	Clc1cc(-c2c[nH]c3ncccc23)cc(NCCCc2ccccc2)n1 [Example 416, 6-chloro-N-(3-phenylpropyl)-4-(1H-pyrrolo[2,3-b]pyridin-3-yl)pyridin-2-amine]
< 10 nM	CSc1ccc(Nc2cc(-c3c[nH]c4ncccc34)cc(Cl)n2)cc1 [Example 418, 6-chloro-N-[4-(methylsulfanyl)phenyl]-4-(1H-pyrrolo[2,3-b]pyridin-3-yl)pyridin-2-amine]
< 10 nM	Clc1cc(-c2c[nH]c3ncccc23)cc(Nc2ccc(Oc3ccccc3)cc2)n1 [Example 419, 6-chloro-N-(4-phenoxyphenyl)-4-(1H-pyrrolo[2,3-b]pyridin-3-yl)pyridin-2-amine]
< 10 nM	Clc1cc(-c2c[nH]c3ncccc23)cc(Nc2ccc(N3CCCCC3)cc2)n1 [Example 420, 6-chloro-N-[4-(piperidin-1-yl)phenyl]-4-(1H-pyrrolo[2,3-b]pyridin-3-yl)pyridin-2-amine]
< 10 nM	CN(C)c1ccc(Nc2cc(-c3c[nH]c4ncccc34)cc(Cl)n2)cc1 [Example 434, N′-[6-chloro-4-(1H-pyrrolo[2,3-b]pyridin-3-yl)pyridin-2-yl]-N,N-dimethylbenzene-1,4-diamine]
< 10 nM	Clc1cc(-c2c[nH]c3ncccc23)cc(Nc2ccc3c(c2)CCC3)n1 [Example 435, 6-chloro-N-(2,3-dihydro-1H-inden-5-yl)-4-(1H-pyrrolo[2,3-b]pyridin-3-yl)pyridin-2-amine]
< 10 nM	Clc1cc(-c2c[nH]c3ncccc23)cc(Nc2ccc3c(c2)OCCO3)n1 [Example 436, 6-chloro-N-(2,3-dihydro-1,4-benzodioxin-6-yl)-4-(1H-pyrrolo[2,3-b]pyridin-3-yl)pyridin-2-amine]
< 10 nM	Clc1cc(-c2c[nH]c3ncccc23)cc(Nc2ccc(N3CCOCC3)cc2)n1 [Example 438, 6-chloro-N-[4-(morpholin-4-yl)phenyl]-4-(1H-pyrrolo[2,3-b]pyridin-3-yl)pyridin-2-amine]
< 10 nM	Clc1cc(-c2c[nH]c3ncccc23)cc(Nc2cccc3c2CCCC3)n1 [Example 439, 6-chloro-4-(1H-pyrrolo[2,3-b]pyridin-3-yl)-N-(5,6,7,8-tetrahydronaphthalen-1-yl)pyridin-2-amine]
< 10 nM	CC(C)(C)c1ccc(Nc2cc(-c3c[nH]c4ncccc34)cc(Cl)n2)cc1 [Example 440, N-(4-tert-butylphenyl)-6-chloro-4-(1H-pyrrolo[2,3-b]pyridin-3-yl)pyridin-2-amine]
< 10 nM	Clc1cc(-c2c[nH]c3ncccc23)cc(Nc2cccc3c2CCC3)n1 [Example 441, 6-chloro-N-(2,3-dihydro-1H-inden-4-yl)-4-(1H-pyrrolo[2,3-b]pyridin-3-yl)pyridin-2-amine]
